Key:
Assay type in all cases: in vivo
[1] = test system: two-spotted red spiders (Tetranychus telarius); experiment: Acaricidal effect of a low concentration (12.5 ppm) on two-spotted red spiders; conditions: leaf immersion, female imagoes, fifth day after treatment, 25° C.
Description: (§1) A stem of green bean seedling having only one primary left was placed in a test tube (capacity: 50 ml) containing water. 15 female imagoes of two-spotted red spiders were put on each leaf. One day after, the leaf having the two-spotted red spiders was immersed (about 5 seconds) in the present insecticide diluted with water, which had been prepared according to the Preparation Example, (concentration: 500 ppm, repetition: twice). They were kept in a constant-temperature room at 25° C. On the fifth day after the treatment, the female imagoes on the leaf of the green bean seedling were observed. The imago-killing rate (%) was determined on the basis of the results of the observation to obtain the results shown in Table 6.
Acaricidal Effect of a Low Concentration of Acaricide on Larvae of Two-Spotted Red Spiders (Tetranychus telarius)
The same tests as those of Test Example 2 were repeated except that the concentration of the acaricide was changed to 12.5 ppm.

[2] = test system: diamond backmoth (Plutella xylostera); experiment: Insecticidal effect on larvae of diamond backmoth (cabbage leaf dip); conditions: 500 ppm; cabbage leaf immersed 1 minute; third-instar larvae; fourth day; 25° C.
Description: Insecticidal Effect on Larvae of Diamond Backmoth (Plutella xylostera) The present insecticide prepared according to the Preparation Example was diluted with water. A piece (diameter: 6 cm) of a cabbage leaf was immersed in the diluted insecticide for 1 minute. After air drying, the piece was placed in a plastic cup (inner diameter: 7 cm). 5 third-instar larvae of diamond backmoth (Plutella xylostera) were put in the cup (1 concentration, repetition: twice). The cup was kept in a constant temperature room at 25° C. On the fourth day, the survival rate and degree of writhing of the larvae were examined. The writhing larvae were each counted to be ½.

[3] = test system: eggs of two-spotted red spiders (Tetranychus telarius); experiment: Acaricidal effect on eggs of two-spotted red spiders, ovicidal rate, 500 ppm spray; conditions: eggs on green bean leaf disc; spray 3.5 ml; concentration 500 ppm; 8 days after treatment
Description: Acaricidal Effect on Eggs of Two-Spotted Red Spiders (Tetranychus telarius) 5 female imagoes of two-spotted red spiders were released on a green been leaf disc (diameter: 3 cm). Then, the imagoes were left to lay eggs on the leaf disc for 20 hours and then removed therefrom. The present acaricide which had been prepared according to Preparation Example 1 was diluted with water to a predetermined concentration. 3.5 ml of the preparation thus obtained was sprayed with a rotary spraying column (Mizuho Rika) over the disc (concentration: 500 ppm, repetition: twice). 8 days after the treatment, the number of unhatched eggs was counted to determine the ovicidal rate (%).

[4] = test system: two-spotted red spiders (Tetranychus telarius); experiment: Acaricidal effect on two-spotted red spiders, imago-killing rate, 500 ppm leaf immersion; conditions: female imagoes on green bean leaf, leaf immersion about 5 seconds, concentration 500 ppm, fifth day after treatment, 25° C.
Description: as §1, with “Acaricidal Effect on Larvae of Two-Spotted Red Spiders (Tetranychus telarius): A” for “A”

SMILES | acaricidal effect [1] | Killing rate [2] | Ovicidal rate (%) [3] | Acaricidal rate (%) [4]
CO/C=C(/C(=O)OC)c1c(C#Cc2cc(C(F)(F)F)cc(C(F)(F)F)c2)c(C(C)C)nn1C [Table 1-17] | 100% | 89% | 100% | 100%
CO/C=C(/C(=O)OC)c1c(C#Cc2ccc(Oc3ccc(C(F)(F)F)cc3)cc2)c(C)nn1C [Table 1-10] | 100% | 100% | 100% | 100%
CCc1nn(C)c(/C(=C\OC)C(=O)OC)c1C#Cc1cc(C(F)(F)F)cc(C(F)(F)F)c1 [Table 1-14] | 100% | 74% | 100% | 100%
CO/C=C(/C(=O)OC)c1c(OCc2cccc(Oc3ccc(C(F)(F)F)cc3)c2)c(C)nn1C [Table 2-3] |  | 100% | 100% | 100%
CO/C=C(/C(=O)OC)c1c(CON=C(C)c2ccc(OC(F)(F)F)cc2)c(C)nn1C [Table 3-101] |  | 100% | 100% | 100%
CO/C=C(/C(=O)OC)c1c(OCc2cc(C(F)(F)F)cc(C(F)(F)F)c2)c(C)nn1C [Table 2-1] | 100% | 87% | 100% | 100%
CO/C=C(/C(=O)OC)c1c(C#Cc2ccc(Oc3ccc(C(F)(F)F)cn3)cc2)c(C)nn1C [Table 1-13] |  | 100% | 100% | 100%
CO/C=C(/C(=O)OC)c1c(OCc2ccc(C(F)(F)F)cc2)c(C)nn1C [Table 2-5] |  | 90% | 100% | 100%
COC=C(C(=O)OC)c1c(C#Cc2ccc(C(F)(F)F)cc2)c(C)nn1C [Table 1-3, Methyl α-{1,3-dimethyl-4-(4-trifluoromethylphenylethynyl)-5-pyrazole}-β-methoxyacrylate] | 100% | 80% | 100% | 100%
CO/C=C(/C(=O)OC)c1c(C#Cc2ccc(Oc3cc(C(F)(F)F)cc(C(F)(F)F)c3)cc2)c(C)nn1C [Table 1-11] | 100% | 100% | 100% | 100%
CCc1nn(C)c(/C(=N\OC)C(=O)OC)c1CON=C(C)c1cccc(OC(F)F)c1 [Table 3-76] |  | 100% |  | 
CO/C=C(/C(=O)OC)c1c(C#Cc2ccc(Oc3ccc(F)cc3Cl)cc2)c(C)nn1C [Table 1-12] | 100% | 100% | 100% | 100%
CO/C=C(/C(=O)OC)c1c(C#Cc2cc(C(F)(F)F)cc(C(F)(F)F)c2)c(-c2ccccc2)nn1C [Table 1-19] | 100% |  | 100% | 100%
CO/C=C(/C(=O)OC)c1c(C#Cc2cccc(C(F)(F)F)c2)c(C)nn1C [Table 1-2] |  | 60% | 100% | 100%
CO/C=C(/C(=O)OC)c1c(OCc2cc(C(F)(F)F)cc(C(F)(F)F)c2)c(C(F)(F)F)nn1C [Table 2-26] | 100% |  | 100% | 100%
CO/C=C(/C(=O)OC)c1c(C#Cc2cc(F)cc(F)c2)c(C)nn1C [Table 1-8] | 100% | 100% | 100% | 100%
COC=C(C(=O)OC)c1c(C#Cc2cc(C(F)(F)F)cc(C(F)(F)F)c2)c(C)nn1C [Table 1-5, Methyl α-[1,3-dimethyl-4-{3,5-bis(trifluoromethyl)phenylethynyl}-5-pyrazole]-β-methoxyacrylate] | 100% | 100% | 100% | 100%
CCn1nc(C)c(C#Cc2cc(C(F)(F)F)cc(C(F)(F)F)c2)c1/C(=C/OC)C(=O)OC [Table 1-22] | 100% | 90% | 100% | 100%
CO/C=C(/C(=O)OC)c1c(OCc2ccc(C(C)(C)C)cc2)c(C)nn1C [Table 2-4] |  | 70% | 100% | 100%
CO/C=C(/C(=O)OC)c1c(C#Cc2ccc(OC(F)(F)F)cc2)c(C)nn1C [Table 1-29] | 100% | 85% | 100% | 100%
CO/C=C(/C(=O)OC)c1c(C#Cc2ccc(OC(F)F)cc2)c(C)nn1C [Table 1-30] | 100% |  | 100% | 100%
CO/C=C(/C(=O)OC)c1c(C#Cc2cc(F)cc(Cl)c2)c(C)nn1C [Table 1-7] | 100% | 80% | 100% | 100%
CCCc1nn(C)c(/C(=C/OC)C(=O)OC)c1C#Cc1cc(C(F)(F)F)cc(C(F)(F)F)c1 [Table 1-16] | 100% |  | 100% | 100%
CCn1nc(C)c(C#Cc2cc(C(F)(F)F)cc(C(F)(F)F)c2)c1C(=COC)C(=O)OC [Table 1-21, Methyl α-[1-ethyl-3-methyl-4-{3,5-bis(trifluoromethyl)phenylethynyl}-5-pyrazole]-β-methoxyacrylate] | 100% | 100% | 100% | 100%
CCCc1nn(C)c(/C(=C\OC)C(=O)OC)c1C#Cc1cc(C(F)(F)F)cc(C(F)(F)F)c1 [Table 1-15] | 100% |  | 100% | 100%
CCc1nn(C)c(/C(=N\OC)C(=O)OC)c1CON=C(C)c1ccc(C(F)(F)F)cc1 [Table 3-73] |  | 100% |  | 
CCn1nc(C(F)(F)F)c(C#Cc2cc(C(F)(F)F)cc(C(F)(F)F)c2)c1/C(=C/OC)C(=O)OC [Table 1-40] | 100% |  | 100% | 100%

— patent publication US20020156115A1, “Insecticidal and acaricidal composition, and methods of using the same” (AGRO-KANESHO CO., LTD., priority 1999, published 2002)
